Measurements taken from patent publication US10689367B2, “Triazole pyridyl compounds as agonists of the APJ receptor” (AMGEN INC., priority 2016, dated 2020).

target: human APJ receptor (Homo sapiens (Human), UniProt P35414); test: [35S]GTPγS binding assay on membranes from CHO cells stably expressing human APJ receptor; format: biochemical; settings: membranes of CHO cells stably expressing human APJ receptor, read-out: Activity hAPJ SPA EC50 IP
Procedure, shortened: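 Agonist EC50 values come from non-linear regression of mean data from several independent runs. Membranes of CHO cells stably expressing human APJ were incubated 90 min at room temperature with [35S]GTPγS in buffer with optimized GDP, MgCl2 and NaCl, then read on a microplate imager.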

Chain of human APJ receptor (P35414 whole entry): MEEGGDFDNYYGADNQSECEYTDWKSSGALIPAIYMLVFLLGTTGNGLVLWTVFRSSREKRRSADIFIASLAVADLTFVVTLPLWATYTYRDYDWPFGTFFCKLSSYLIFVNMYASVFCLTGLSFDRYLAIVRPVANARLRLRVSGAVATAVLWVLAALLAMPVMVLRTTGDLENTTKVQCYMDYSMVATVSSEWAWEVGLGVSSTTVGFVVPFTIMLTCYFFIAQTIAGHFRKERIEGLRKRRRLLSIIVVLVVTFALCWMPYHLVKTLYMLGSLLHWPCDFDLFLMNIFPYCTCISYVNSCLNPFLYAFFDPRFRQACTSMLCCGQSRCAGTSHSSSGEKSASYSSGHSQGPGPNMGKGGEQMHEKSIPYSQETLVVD

| Structure (SMILES) | EC50 [nM] |
| --- | --- |
| CO[C@H](c1ncc(Cl)cn1)[C@H](C)S(=O)(=O)Nc1nnc(-c2cncc(C)c2)n1Cc1ccon1 [Example 262.0, (1R,2S)-1-(5-chloropyrimidin-2-yl)-N-(4-(isoxazol-3-ylmethyl)-5-(5-methylpyridin-3-yl)-4H-1,2,4-triazol-3-yl)-1-methoxypropane-2-sulfonamide] | 200 |
| COc1cccc(-c2nnc(NS(=O)(=O)[C@@H](C)[C@H](OC)c3ncc(Cl)cn3)n2C2C3(CC3)C23CC3)n1 [Example 163.0, (1R,2S)-1-(5-Chloropyrimidin-2-yl)-N-(4-(dispiro[2.0.24.13]heptan-7-yl)-5-(6-methoxypyridin-2-yl)-4H-1,2,4-triazol-3-yl)-1-methoxypropane-2-sulfonamide] | 52 |
| COc1cccc(-c2nnc(NS(=O)(=O)[C@@H](C)[C@H](OC)c3ncc(Cl)cn3)n2CC[S@+](C)[O-])n1 (single isomer, unassigned) [Example 94.0] | 1000 |
| COc1cccc(-c2nnc(NS(=O)(=O)[C@@H](C)[C@H](C)c3ncc(Cl)cn3)n2[C@H](c2conc2C)C2CC2)n1 (single isomer, unassigned) [Example 229.0, (2S,3R)-3-(5-chloro-2-pyrimidinyl)-N-(4-((S)-cyclopropyl(3-methyl-1,2-oxazol-4-yl)methyl)-5-(6-methoxy-2-pyridinyl)-4H-1,2,4-triazol-3-yl)-2-butanesulfonamide or (2S,3R)-3-(5-chloro-2-pyrimidinyl)-N-(4-((R)-cyclopropyl(3-methyl-1,2-oxazol-4-yl)methyl)-5-(6-methoxy-2-pyridinyl)-4H-1,2,4-triazol-3-yl)-2-butanesulfonamide] | 1.2 |
| CO[C@H](c1ncc(Cl)cn1)[C@H](C)S(=O)(=O)Nc1nnc(-c2ccccn2)n1C1(C2CC2)CC1 [Example 108.0] | 5.9 |
| COc1cccc(-c2nnc(NS(=O)(=O)[C@@H](C)[C@H](OC)c3ncc(Cl)cn3)n2[C@H](C)c2cncc(F)c2)n1 (single isomer, unassigned) [Example 349.0, (1R,2S)-1-(5-chloropyrimidin-2-yl)-N-(4-((R)-1-(5-fluoropyridin-3-yl)ethyl)-5-(6-methoxypyridin-2-yl)-4H-1,2,4-triazol-3-yl)-1-methoxypropane-2-sulfonamide or (1R,2S)-1-(5-chloropyrimidin-2-yl)-N-(4-((S)-1-(5-fluoropyridin-3-yl)ethyl)-5-(6-methoxypyridin-2-yl)-4H-1,2,4-triazol-3-yl)-1-methoxypropane-2-sulfonamide] | 0.43 |
| COc1cccc(-c2nnc(NS(=O)(=O)[C@@H](C)[C@@H](OC(C)C)c3cnc(C)cn3)n2C2CC2)n1 [Example 123.0] | 5.6 |
| CCc1cc(Cn2c(NS(=O)(=O)[C@@H](C)[C@H](OC)c3ncc(Cl)cn3)nnc2-c2cncc(C)c2)on1 [Example 293.0, (1R,2S)-1-(5-chloropyrimidin-2-yl)-N-(4-((3-ethylisoxazol-5-yl)methyl)-5-(5-methylpyridin-3-yl)-4H-1,2,4-triazol-3-yl)-1-methoxypropane-2-sulfonamide] | 200 |
| COc1cccc(-c2nnc(NS(=O)(=O)[C@@H](C)[C@H](C)c3ncc(Cl)cn3)n2[C@@H](C)c2ncn(C)n2)n1 (single isomer, unassigned) [Example 237.0, (2S,3R)-3-(5-chloro-2-pyrimidinyl)-N-(5-(6-methoxy-2-pyridinyl)-4-((1S)-1-(1-methyl-1H-1,2,4-triazol-3-yl)ethyl)-4H-1,2,4-triazol-3-yl)-2-butanesulfonamide or (2S,3R)-3-(5-chloro-2-pyrimidinyl)-N-(5-(6-methoxy-2-pyridinyl)-4-((1R)-1-(1-methyl-1H-1,2,4-triazol-3-yl)ethyl)-4H-1,2,4-triazol-3-yl)-2-butanesulfonamide] | 130 |
| CO[C@H](c1ncc(Cl)cn1)[C@H](C)S(=O)(=O)Nc1nnc(-c2cccnc2)n1C(C1CC1)C1CC1 [Example 112.0] | 3.3 |
| COc1cccc(-c2nnc(NS(=O)(=O)[C@@H](C)[C@H](OC)c3ncc(Cl)cn3)n2[C@H](C)c2cnn(C)c2)n1 (single isomer, unassigned) [Example 338.0, (1R,2S)-1-(5-chloropyrimidin-2-yl)-1-methoxy-N-(5-(6-methoxypyridin-2-yl)-4-((R)-1-(1-methyl-1H-pyrazol-4-yl)ethyl)-4H-1,2,4-triazol-3-yl)propane-2-sulfonamide or (1R,2S)-1-(5-chloropyrimidin-2-yl)-1-methoxy-N-(5-(6-methoxypyridin-2-yl)-4-((S)-1-(1-methyl-1H-pyrazol-4-yl)ethyl)-4H-1,2,4-triazol-3-yl)propane-2-sulfonamide] | 0.56 |
| COCC(COC)n1c(NS(=O)(=O)[C@@H](C)[C@H](OC)c2ncc(Cl)cn2)nnc1-c1cccnc1 [Example 16.0] | 44 |
| COCC1(n2c(NS(=O)(=O)[C@@H](C)[C@@H](OC(C)C)c3ncc(C)cn3)nnc2-c2ccccn2)CC1 [Example 65.0] | 24 |
| COc1cccc(-c2nnc(NS(=O)(=O)[C@@H](C)[C@H](C)c3ncc(Cl)cn3)n2C[C@H]2CCCO2)n1 (racemic) [Example 282.0, (2S,3R)-3-(5-chloropyrimidin-2-yl)-N-(5-(6-methoxypyridin-2-yl)-4-(((R)-tetrahydrofuran-2-yl)methyl)-4H-1,2,4-triazol-3-yl)butane-2-sulfonamide or (2S,3R)-3-(5-chloropyrimidin-2-yl)-N-(5-(6-methoxypyridin-2-yl)-4-(((S)-tetrahydrofuran-2-yl)methyl)-4H-1,2,4-triazol-3-yl)butane-2-sulfonamide] | 54 |
| COc1cccc(-c2nnc(NS(=O)(=O)[C@@H](C)[C@H](OC)c3ncc(Cl)cn3)n2CCc2ccccn2)n1 [Example 283.0, (1R,2S)-1-(5-chloropyrimidin-2-yl)-1-methoxy-N-(5-(6-methoxypyridin-2-yl)-4-(2-(pyridin-2-yl)ethyl)-4H-1,2,4-triazol-3-yl)propane-2-sulfonamide] | 69 |
| COc1cccc(-c2nnc(NS(=O)(=O)[C@@H](C)[C@H](OC)c3ncc(Cl)cn3)n2CC[S@+](C)[O-])n1 (single isomer, unassigned) [Example 95.0] | 26 |
| COCC(COC)n1c(NS(=O)(=O)[C@@H](C)[C@H](C)c2ncc(Cl)cn2)nnc1-c1cccnc1 [Example 19.0, (2S,3R)-3-(5-chloro-2-pyrimidinyl)-N-(4-(1,3dimethoxy-2-propanyl)-5-(3-pyridinyl)-4H-1,2,4-triazol-3-yl)-2-butanesulfonamide] | 26 |
| CO[C@H](c1ncc(Cl)cn1)[C@H](C)S(=O)(=O)Nc1nnc(-c2cncc(C)c2)n1C1CC1 [Example 149.0, (1R,2S)-1-(5-Chloropyrimidin-2-yl)-N-(4-cyclopropyl-5-(5-methylpyridin-3-yl)-4H-1,2,4-triazol-3-yl)-1-methoxypropane-2-sulfonamide] | 36 |
| CC[C@H]([C@@H]1CCCCO1)n1c(NS(=O)(=O)[C@@H](C)[C@H](OC)c2ncc(Cl)cn2)nnc1-c1cccc(OC)n1 (single isomer, unassigned) [Example 326.0] | 0.14 |
| CO[C@H](c1ncc(Cl)cn1)[C@H](C)S(=O)(=O)Nc1nnc(-c2cccc(C)n2)n1C1(C)CCC1 [Example 59.0] | 28 |
| COC[C@@H](C)n1c(NS(=O)(=O)[C@@H](C)[C@H](OC)c2ncc(Cl)cn2)nnc1-c1ccccn1 [Example 124.0] | 24 |
| COCC1(n2c(NS(=O)(=O)[C@@H](C)[C@H](C)c3cnc(C)cn3)nnc2-c2cccnc2)CC1 [Example 66.0] | 38 |
| COc1cccc(-c2nnc(NS(=O)(=O)[C@@H](C)[C@@H](OC(C)C)c3ncc(C)cn3)n2[C@@H](C)c2ncn(C)n2)n1 (single isomer, unassigned) [Example 234.0, (1S,2S)-N-(5-(6-methoxy-2-pyridinyl)-4-((1R)-1-(1-methyl-1H-1,2,4-triazol-3-yl)ethyl)-4H-1,2,4-triazol-3-yl)-1-(5-methyl-2-pyrimidinyl)-1-(2-propanyloxy)-2-propanesulfonamide or (1S,2S)-N-(5-(6-methoxy-2-pyridinyl)-4-((1S)-1-(1-methyl-1H-1,2,4-triazol-3-yl)ethyl)-4H-1,2,4-triazol-3-yl)-1-(5-methyl-2-pyrimidinyl)-1-(2-propanyloxy)-2-propanesulfonamide] | 84 |
| COc1cccc(-c2nnc(NS(=O)(=O)[C@@H](C)[C@H](OC)c3ncc(Cl)cn3)n2C[C@@H]2CCC[C@H](C)O2)n1 (single isomer, unassigned) [Example 305.0] | 4 |
| COc1cccc(-c2nnc(NS(=O)(=O)[C@@H](C)[C@H](OC)c3ncc(Cl)cn3)n2C[C@H]2CCC(C)(C)O2)n1 (single isomer, unassigned) [Example 289.0, (1R,2S)-1-(5-chloropyrimidin-2-yl)-N-(4-(((R)-5,5-dimethyltetrahydrofuran-2-yl)methyl)-5-(6-methoxyl)yridin-2-yl)-4H-1,2,4-triazol-3-yl)-1-methoxypropane-2-sulfonamide or (1R,2S)-1-(5-chloropyrimidin-2-yl)-N-(4-(((S)-5,5-dimethyltetrahydrofuran-2-yl)methyl)-5-(6-methoxypyridin-2-yl)-4H-1,2,4-triazol-3-yl)-1-methoxypropane-2-sulfonamide] | 82 |
| COc1cccc(-c2nnc(NS(=O)(=O)[C@@H](C)[C@H](OC)c3ncc(Cl)cn3)n2[C@H]2C[C@@H](OC)C2)n1 [Example 180.0, (1R,2S)-1-(5-chloro-2-pyrimidinyl)-1-methoxy-N-(4-(cis-3-methoxycyclobutyl)-5-(6-methoxy-2-pyridinyl)-4H-1,2,4-triazol-3-yl)-2-propanesulfonamide] | 74 |
